Measured values as given in patent US6562627B1, “High throughput method for measurement of physicochemical values” (BDC Pharma LLC, priority 1998, dated 2003).
Structures can show the parent of a compound that is named as a salt. Where two headings read alike, the source gives them in different places.

Legend:
[1] = From the text: (§1) k′app=k′HA([H^+]+^surfaceKa)/([H^+]+^bulkKa) Eq. 7
(§2) where k′app is the capacity factor of the test compound measured at different mobile phase pH conditions, and k′HA is the capacity factor of the non-ionized species. Nonlinear fitting of the three experimentally measured parameters [H+], k′app, and k′HA to eq. 7 can be used to obtain numerical estimates for both ^surface Ka and ^bulkKa of the compound.
(§3) k′app=k′A^−([H^+]/^surfaceKa+1)/([H^+]/^bulkKa+1) Eq. 8
(§4) The reason for developing eq. 7 is that eq. […] Both parameters (k′HA and k′A^−) can be treated as unknowns in the equations (like ^bulkKa and ^surfaceKa), and the experimental data can be used to calculate (by non-linear curve fitting) three parameters (k′HA (or k′A^−) and ^bulkKa and ^surfaceKa) instead of two (^bulkKa and ^surfaceKa). This reduces the number of experimental data to be collected, and still allows the determination of the desired parameters (^bulkKa and ^surfaceKa).
(§5) The conventional thinking regarding equations 7 and 8 is that k′HA and k′A^− (the capacity factors of the […] species) are constants that have to be determined experimentally in order to calculate ^bulkpKa and ^surfacepKa. […] This is problematic because it may require use of pH's greater than 8-9, which in the case of some test surfaces causes deterioration. […] If sufficient data are collected (no matter what the pH range is), non-linear curve fitting techniques can be used to fit three parameters (^bulkpKa, ^surfacepKa and k′HA (or k′A^−, depending on whether you use Eq. 7 or Eq. 8)) instead of two (^bulkpKa and ^surfacepKa).
The data was collected on 4.6×30 mm^esterIAM.PC^C10/C3 columns. Four ^esterIAM.PC^C10/C3 columns were used to collect all the experimental data.
(§6) The test compounds were injected as two distinct mixtures (acidic and basic compounds) to avoid acid/base interactions during the chromatographic runs. […] The retention time (tr) was determined for each compound and the corresponding capacity factor k′app was calculated. Between each run, column degradation was evaluated by running the standard compounds at pH=7.4.
(§7) The retention time of each compound was determined using the Esquire Data Analysis software. The capacity factors k′app were calculated using the equation: k′app=(tr−t0)/t0 where the tr is the retention time, and t0 is the dead time. The final ^surfaceKa and ^bulkKa were calculated by nonlinear least square curve fitting of the following equations:
(§8) k′app=k′HA([H^+]+^surfaceKa)/([H^+]+^bulkKa) (Eq. 7 as shown above).
(§9) k′app=k′A^−([H^+]/^surfaceKa+1)/([H^+]/+^bulkKa+1) (Eq. 8 as shown above).
(§10) [H^+] was calculated from the mobile phase pH values used for the experiment. The fitting parameters were k′A^−, ^surfaceKa, and ^bulkKa for the acidic compounds and kHA, ^surfaceKa, and ^bulkKa for the basic compounds.
(§11) The nonlinear fitting function is from the commercial software S-PLUS (MathSoft). Briefly, the function tries to estimate the parameters to minimize the sum of the squared differences between the response and the prediction. We collected data at 15 different pH values. […] Like all silica based chromatography material, Immobilized Artificial Membranes (IAM's) are unstable in the presence of chemically basic mobile phase, and column lifetimes decrease under these conditions. Thus it is not possible to continuously perfuse IAM columns with basic mobile phases for extended periods of time. […] In summary, 12 points were used to curve fit the data.
(§12) For each compound, the retention time (tr) was determined and the corresponding capacity factor (k′app) was calculated under various mobile phase pH conditions.

[2] = remark: listed apart in the source
From the text: as §1, §2, §3, §4, §5, §6, §7, §8, §9, §10, §11, §12

[3] = literature, cited from earlier work; for bulkpka2 (Ref.): second ionizable group
[4] = cited from earlier work
[5] = cited from earlier work; remark: listed apart in the source
[6] = Capacity factor (k′app) by LC/MS on an immobilized artificial membrane column at varied mobile phase pH; type: physicochemical
[7] = esterIAM.PC C10/C3 column, 0.01 M PBS mobile phase, 12 pH points 4.05 to 8.06, monovalent equations
[8] = 0.01 M PBS mobile phase, 12 pH points 4.05 to 8.06, monovalent equations

## Cc1cc(-c2ccccc2)nnc1NCCN1CCOCC1 [minaprine]
[1]
  surfacepKa (Exp.): 5.75
[2]
  bulkpKa (Exp.): 6.75
[3]; conditions not given
  bulkpKa1 (Ref.): 7.05
[3]
  bulkpka2 (Ref.): 4

## CCCCNc1ccc(C(=O)OCCN(C)C)cc1 [TTC, tetracaine hydrochloride]
[4]; pH 5.5, positively charged form
  location in the membrane: resides near the phospholipid head group region
[4]; pH 9.0, uncharged form
  location in the membrane: penetrates more deeply into the hydrocarbon region of the membrane

## C=C1CC[C@@]2(O)[C@H]3Cc4ccc(O)c5c4[C@@]2(CCN3CC2CC2)[C@H]1O5 [nalmefene]
[1]; [7]
  surfacepKa (Exp.): 6.88
[2]; [8]
  bulkpKa (Exp.): 7.81
[3]; conditions not given
  bulkpKa1 (Ref.): 7.63

## COc1ccc(OC)c(C(O)CNC(=O)CN)c1 (centres unmarked) [midodrine]
[1]
  surfacepKa (Exp.): 6.18
[2]
  bulkpKa (Exp.): 6.65
[3]; 0.3% aq. soln
  bulkpKa1 (Ref.): 7.80

## CC1COc2c(N3CCN(C)CC3)c(F)cc3c(=O)c(C(=O)O)cn1c23 (centres unmarked) [ofloxacin]
[1]; [7]
  surfacepKa (Exp.): 7.32
[2]; [8]
  bulkpKa (Exp.): 6.84
[3]; conditions not given
  bulkpKa1 (Ref.): 5.74
[3]
  bulkpka2 (Ref.): 7.9

## CCC[C@@H]1C[C@@H](C(=O)N[C@@H]([C@H]2O[C@H](SC)[C@H](O)[C@@H](O)[C@H]2O)[C@@H](C)O)N(C)C1 [lincomycin]
[1]
  surfacepKa (Exp.): 6.28
[2]
  bulkpKa (Exp.): 7.54
[3]; conditions not given
  bulkpKa1 (Ref.): 7.5

## CC[C@H]1[C@@H]2C[C@H]3[C@@H]4N(C)c5ccccc5[C@]45C[C@@H]([C@H]2[C@H]5O)N3[C@@H]1O [ajmaline]
[1]; [7]
  surfacepKa (Exp.): 6.75
[2]; [8]
  bulkpKa (Exp.): 7.43
[3]; 20° C., DMFA/H2O-80%
  bulkpKa1 (Ref.): 8.1

## CN(C)CCOC(C)(c1ccccc1)c1ccccn1 (centres unmarked) [doxylamine]
[1]; [7]
  surfacepKa (Exp.): 6.72
[2]; [8]
  bulkpKa (Exp.): 7.93
[3]; conditions not given
  bulkpKa1 (Ref.): 7.64
[3]
  bulkpka2 (Ref.): 9.20

## CCn1cc(C(=O)O)c(=O)c2ccc(C)nc21 [nalldixic acid]
[1]; [7]
  surfacepKa (Exp.): 7.54
[2]; [8]
  bulkpKa (Exp.): 6.03
[3]; conditions not given
  bulkpKa1 (Ref.): 6.02

## C=CCN1CC[C@]23c4c5ccc(O)c4O[C@H]2[C@@H](O)C=C[C@H]3[C@H]1C5 [nalorphine]
[1]; [7]
  surfacepKa (Exp.): 6.04
[2]; [8]
  bulkpKa (Exp.): 7.63
[3]; conditions not given
  bulkpKa1 (Ref.): 7.8

## COc1cc2nc(N3CCN(C(=O)C4CCCO4)CC3)nc(N)c2cc1OC (centres unmarked) [terazosin]
[1]
  surfacepKa (Exp.): 6.17
[2]
  bulkpKa (Exp.): 6.65
[3]; 0.1 N NaOH
  bulkpKa1 (Ref.): 7.1

## CCCCCCCCCCCCC/C=C/[C@@H](O)[C@H](CO)N(C)C [DMS, N,N-Dimethyl-D-sphingosine]
[5]; at physiological pH
  fraction protonated: 90%
[5]
  membrane bound pKa value: 8.8

## COc1cc2c(cc1OC)[C@@]13CCN4CC5=CCO[C@H]6CC(=O)N2[C@H]1[C@H]6[C@H]5C[C@H]43 [brucine]
[1]; [7]
  surfacepKa (Exp.): 6.55
[2]; [8]
  bulkpKa (Exp.): 7.9
[3]; conditions not given
  bulkpKa1 (Ref.): 6.04
[3]
  bulkpka2 (Ref.): 11.70

## COc1cc(NS(=O)(=O)c2ccc(N)cc2)nc(OC)n1 [sulfadimethoxine]
[1]; [7]
  surfacepKa (Exp.): 7.64
[6]; mobile phase pH 4.05
  Capacity Factor (k′app) on IAM.PC Surface: 152.07
[6]; mobile phase pH 4.53 (not used for curve fit)
  Capacity Factor (k′app) on IAM.PC Surface: 131.83
[6]; mobile phase pH 5.01
  Capacity Factor (k′app) on IAM.PC Surface: 131.23
[6]; mobile phase pH 5.51
  Capacity Factor (k′app) on IAM.PC Surface: 116.77
[6]; mobile phase pH 6.10
  Capacity Factor (k′app) on IAM.PC Surface: 67.79
[6]; mobile phase pH 6.38
  Capacity Factor (k′app) on IAM.PC Surface: 46.54
[6]; mobile phase pH 6.71
  Capacity Factor (k′app) on IAM.PC Surface: 28.10
[6]; mobile phase pH 7.00
  Capacity Factor (k′app) on IAM.PC Surface: 19.48
[6]; mobile phase pH 7.17
  Capacity Factor (k′app) on IAM.PC Surface: 13.49
[6]; mobile phase pH 7.45
  Capacity Factor (k′app) on IAM.PC Surface: 8.24
[6]; mobile phase pH 7.69
  Capacity Factor (k′app) on IAM.PC Surface: 6.40
[6]; mobile phase pH 7.91
  Capacity Factor (k′app) on IAM.PC Surface: 4.85
[6]; mobile phase pH 8.06
  Capacity Factor (k′app) on IAM.PC Surface: 3.52
[6]; mobile phase pH 8.81 (column degradation, not used for curve fit)
  Capacity Factor (k′app) on IAM.PC Surface: 2.84
[6]; mobile phase pH 10.42 (column degradation, not used for curve fit)
  Capacity Factor (k′app) on IAM.PC Surface: 0.71
[2]; [8]
  bulkpKa (Exp.): 6.02

## C=CCN1CC[C@]23c4c5ccc(O)c4O[C@H]2C(=O)CC[C@@]3(O)[C@H]1C5 [naloxone]
[1]; [7]
  surfacepKa (Exp.): 6.24
[2]; [8]
  bulkpKa (Exp.): 7.84

## CC(=O)CC(c1ccccc1)c1c(O)c2ccccc2oc1=O (centres unmarked) [warfarin]
[1]; [7]
  surfacepKa (Exp.): 7
[2]; [8]
  bulkpKa (Exp.): 5.43
